We go through 35 compounds from patent US7928107B2, “Quinazolines useful as modulators of ion channels” (Vertex Pharmaceuticals Incorporated, priority 2004, dated 2011).

pIC50: −log10 of the molar value.

This assay concerns the target NaV 1.8 channel (Homo sapiens, UniProt Q9Y5Y9). Briefly: Activity against NaV 1.8 channel (optical membrane potential assay). The assay is classed as cell-based. In outline: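 FRET membrane-potential assay (coumarin CC2-DMPE donor, oxonol DiSBAC2(3) acceptor plus veratridine) on VIPR; compound added with oxonol for 20–30 min before Na+ add-back stimulation. Activity from background-subtracted 460/580 nm ratio change (baseline 2–7 s, response 15–24 s) relative to tetracaine positive and drug-free negative controls.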

Chain of NaV 1.8 channel (Q9Y5Y9 whole entry): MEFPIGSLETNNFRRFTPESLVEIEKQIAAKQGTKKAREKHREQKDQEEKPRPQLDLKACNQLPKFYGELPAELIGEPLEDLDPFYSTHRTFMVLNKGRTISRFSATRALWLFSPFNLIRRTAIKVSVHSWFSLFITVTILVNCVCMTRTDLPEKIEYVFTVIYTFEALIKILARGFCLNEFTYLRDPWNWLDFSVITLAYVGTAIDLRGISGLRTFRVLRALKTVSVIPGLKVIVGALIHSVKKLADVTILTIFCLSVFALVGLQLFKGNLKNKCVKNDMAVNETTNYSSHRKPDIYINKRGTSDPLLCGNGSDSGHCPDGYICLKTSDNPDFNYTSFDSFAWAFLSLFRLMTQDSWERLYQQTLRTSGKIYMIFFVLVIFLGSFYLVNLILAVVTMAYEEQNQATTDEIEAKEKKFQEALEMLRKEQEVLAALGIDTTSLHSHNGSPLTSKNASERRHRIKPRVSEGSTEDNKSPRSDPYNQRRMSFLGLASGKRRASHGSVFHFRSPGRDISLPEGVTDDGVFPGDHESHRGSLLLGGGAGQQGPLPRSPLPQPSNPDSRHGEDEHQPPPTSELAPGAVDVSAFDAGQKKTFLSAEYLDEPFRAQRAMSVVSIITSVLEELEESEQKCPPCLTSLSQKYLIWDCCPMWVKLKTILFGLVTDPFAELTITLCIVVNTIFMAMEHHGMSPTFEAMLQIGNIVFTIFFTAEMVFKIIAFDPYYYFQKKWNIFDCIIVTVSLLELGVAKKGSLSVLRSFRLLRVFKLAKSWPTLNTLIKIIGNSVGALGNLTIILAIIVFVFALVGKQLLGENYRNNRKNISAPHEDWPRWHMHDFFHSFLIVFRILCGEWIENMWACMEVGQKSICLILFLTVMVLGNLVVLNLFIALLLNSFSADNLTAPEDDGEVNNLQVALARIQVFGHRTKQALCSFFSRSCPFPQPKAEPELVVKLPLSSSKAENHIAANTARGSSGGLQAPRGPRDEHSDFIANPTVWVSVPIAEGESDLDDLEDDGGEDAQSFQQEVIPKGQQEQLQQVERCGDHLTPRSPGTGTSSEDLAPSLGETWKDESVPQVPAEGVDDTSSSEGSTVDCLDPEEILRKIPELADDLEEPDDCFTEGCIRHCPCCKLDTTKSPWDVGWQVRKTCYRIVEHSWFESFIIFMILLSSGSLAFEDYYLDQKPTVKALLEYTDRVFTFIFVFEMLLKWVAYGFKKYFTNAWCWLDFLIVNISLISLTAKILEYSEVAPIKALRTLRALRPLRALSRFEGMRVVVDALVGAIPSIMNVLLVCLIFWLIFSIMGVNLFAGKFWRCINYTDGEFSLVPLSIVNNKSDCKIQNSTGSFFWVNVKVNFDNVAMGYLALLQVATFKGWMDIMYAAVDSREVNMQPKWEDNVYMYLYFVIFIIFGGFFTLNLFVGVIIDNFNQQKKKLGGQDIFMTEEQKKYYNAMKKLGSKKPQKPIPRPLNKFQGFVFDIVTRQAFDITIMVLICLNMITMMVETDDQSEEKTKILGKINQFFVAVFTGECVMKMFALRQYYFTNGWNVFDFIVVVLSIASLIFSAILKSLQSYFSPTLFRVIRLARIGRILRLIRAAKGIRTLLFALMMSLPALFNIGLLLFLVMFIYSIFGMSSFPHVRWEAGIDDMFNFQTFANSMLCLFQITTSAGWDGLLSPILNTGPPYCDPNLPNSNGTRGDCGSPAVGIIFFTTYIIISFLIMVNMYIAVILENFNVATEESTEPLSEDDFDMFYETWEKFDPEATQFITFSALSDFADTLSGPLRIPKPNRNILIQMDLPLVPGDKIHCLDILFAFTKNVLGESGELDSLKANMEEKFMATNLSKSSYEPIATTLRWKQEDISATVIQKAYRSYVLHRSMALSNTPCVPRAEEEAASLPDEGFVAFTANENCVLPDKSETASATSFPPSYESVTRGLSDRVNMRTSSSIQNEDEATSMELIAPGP

With `Cc1ccc2c(N3CCC(NC(=O)OCC4CCCCO4)CC3)nc(-c3ccccc3O)nc2c1` (centres unmarked) [Example 219, {1-[2-(2-Hydroxy-phenyl)-7-methyl-quinazolin-4-yl]-piperidin-4-yl}-carbamic acid tetrahydro-pyran-2-ylmethyl ester], the pIC50 is more than 5.70.
For `Cc1ccc2c(N3CCC(NC(=O)C4CCOCC4)CC3)nc(-c3ccccc3O)nc2c1` [Example 220, Tetrahydro-N-(1-(2-(2-hydroxyphenyl)-7-methylquinazolin-4-yl)piperidin-4-yl)-2H-pyran-4-carboxamide] the value was less than 5.00; for `Cc1ccc2c(N3CCC(NC(=O)CC4CCOCC4)CC3)nc(-c3ccccc3O)nc2c1` [Example 221, 2-(Tetrahydro-2H-pyran-4-yl)-N-(1-(2-(2-hydroxyphenyl)-7-methylquinazolin-4-yl)piperidin-4-yl)acetamide], less than 5.00; for `Cc1ccc2c(N3CCC(NC(=O)COC4CC(C)CCC4C(C)C)CC3)nc(-c3ccccc3O)nc2c1` (centres unmarked) [Example 222, 2-(2-Isopropyl-5-methylcyclohexyloxy)-N-(1-(2-(2-hydroxyphenyl)-7-methylquinazolin-4-yl)piperidin-4-yl)acetamide], less than 5.00.
For `Cc1ccc2c(N3CCC(NC(=O)CCc4ccccn4)CC3)nc(-c3ccccc3O)nc2c1` [Example 223, N-(1-(2-(2-Hydroxyphenyl)-7-methylquinazolin-4-yl)piperidin-4-yl)-3-(pyridin-2-yl)propanamide] the value was less than 5.00; for `O=C(NC1CCN(c2nc(-c3ccccc3O)nc3ccc(F)cc23)CC1)[C@H]1CCCO1` [Example 224, (2R)—N-(1-(6-Fluoro-2-(2-hydroxyphenyl)quinazolin-4-yl)piperidin-4-yl)-tetrahydrofuran-2-carboxamide], less than 5.00.
The value for `Cc1ccc2c(N3CCC(NC(=O)CCc4cccnc4)CC3)nc(-c3ccccc3O)nc2c1` [Example 225, N-{1-[2-(2-Hydroxy-phenyl)-7-methyl-quinazolin-4-yl]-piperidin-4-yl}-3-pyridin-3-yl-propionamide] was less than 5.00; that for `Cc1ccc2c(N3CCC[C@@H](CNC(=O)C4CC4)C3)nc(-c3ccccc3O)nc2c1` [Example 226, N—(((S)-1-(2-(2-Hydroxyphenyl)-7-methylquinazolin-4-yl)piperidin-3-yl)methyl)cyclopropanecarboxamide] was less than 5.00; that for `Cc1ccc2c(N3CCC(NC(=O)OCc4cccnc4)CC3)nc(-c3ccccc3O)nc2c1` [Example 227, (Pyridin-3-yl)methyl 1-(2-(2-hydroxyphenyl)-7-methylquinazolin-4-yl)piperidin-4-ylcarbamate] was less than 5.00.
As for `Cc1ccc2c(N3CCC(NC(=O)OCc4ccncc4)CC3)nc(-c3ccccc3O)nc2c1` [Example 228, (Pyridin-4-yl)methyl 1-(2-(2-hydroxyphenyl)-7-methylquinazolin-4-yl)piperidin-4-ylcarbamate], the pIC50 was less than 5.00.
For `Cc1ccc2c(N3CCC(NC(=O)OCc4cccc5c4OCO5)CC3)nc(-c3ccccc3O)nc2c1` [Example 229, (Benzo[d][1,3]dioxol-7-yl)methyl 1-(2-(2-hydroxyphenyl)-7-methylquinazolin-4-yl)piperidin-4-ylcarbamate] the value was less than 5.00; for `Cc1ccc2c(N3CCCC(C(=O)NCC4CCCO4)C3)nc(-c3ccccc3O)nc2c1` (centres unmarked) [Example 230, N-((Tetrahydrofuran-2-yl)methyl)-1-(2-(2-hydroxyphenyl)-7-methylquinazolin-4-yl)piperidine-3-carboxamide], 5.00 to 5.70.
For `Cc1ccc2c(N3CCC[C@@H](CNC(=O)O[C@H]4CCOC4)C3)nc(-c3c(O)cccc3F)nc2c1` [Example 231, (S)-Tetrahydrofuran-3-yl ((S)-1-(2-(2-fluoro-6-hydroxyphenyl)-7-methylquinazolin-4-yl)piperidin-3-yl)methylcarbamate] the value was 5.00 to 5.70; for `Cc1ccc2c(N3CCC(NC(=O)[C@H](O)CC(C)(C)C)CC3)nc(-c3ccccc3O)nc2c1` [Example 232, (2R)-2-Hydroxy-N-(1-(2-(2-hydroxyphenyl)-7-methylquinazolin-4-yl)piperidin-4-yl)-4,4-dimethylpentanamide], 5.00 to 5.70; for `Cc1ccc2c(N3CCC(NC(=O)C(C)(C)O)CC3)nc(-c3ccccc3O)nc2c1` [Example 233, 2-Hydroxy-N-(1-(2-(2-hydroxyphenyl)-7-methylquinazolin-4-yl)piperidin-4-yl)-2-methylpropanamide], less than 5.00.
The value for `CCC(O)(CC)C(=O)NC1CCN(c2nc(-c3ccccc3O)nc3cc(C)ccc23)CC1` [Example 234, 2-Ethyl-2-hydroxy-N-(1-(2-(2-hydroxyphenyl)-7-methylquinazolin-4-yl)piperidin-4-yl)butanamide] was less than 5.00; that for `CC(C)(O)C(=O)NC1CCN(c2nc(-c3ccccc3O)nc3ccccc23)CC1` [Example 235, 2-Hydroxy-N-(1-(2-(2-hydroxyphenyl)quinazolin-4-yl)piperidin-4-yl)-2-methylpropanamide] was 5.00 to 5.70; that for `CC[C@@H](O)C(=O)NC1CCN(c2nc(-c3ccccc3O)nc3ccccc23)CC1` [Example 236, (2R)-2-Hydroxy-N-(1-(2-(2-hydroxyphenyl)quinazolin-4-yl)piperidin-4-yl)butanamide] was less than 5.00.
Consider `CC[C@H](O)C(=O)NC1CCN(c2nc(-c3ccccc3O)nc3ccccc23)CC1` [Example 237, (2S)-2-Hydroxy-N-(1-(2-(2-hydroxyphenyl)quinazolin-4-yl)piperidin-4-yl)butanamide], for which the pIC50 was less than 5.00.
Turning to `CCCCC(O)C(=O)NC1CCN(c2nc(-c3ccccc3O)nc3ccccc23)CC1` (centres unmarked) [Example 238, 2-Hydroxy-N-(1-(2-(2-hydroxyphenyl)quinazolin-4-yl)piperidin-4-yl)hexanamide], the pIC50 is less than 5.00.
With `CC(O)(C(=O)NC1CCN(c2nc(-c3ccccc3O)nc3ccccc23)CC1)C(F)(F)F` (centres unmarked) [Example 239, 2-(Trifluoromethyl)-2-hydroxy-N-(1-(2-(2-hydroxyphenyl)quinazolin-4-yl)piperidin-4-yl)propanamide], the negative logarithm of the IC50 (pIC50) is less than 5.00.
The value for `CCC(O)(CC)C(=O)NC1CCN(c2nc(-c3ccccc3O)nc3ccccc23)CC1` [Example 240, 2-Ethyl-2-hydroxy-N-(1-(2-(2-hydroxyphenyl)quinazolin-4-yl)piperidin-4-yl)butanamide] was less than 5.00.
For `CCCC(O)C(=O)NC1CCN(c2nc(-c3ccccc3O)nc3ccccc23)CC1` (centres unmarked) [Example 241, 2-Hydroxy-N-(1-(2-(2-hydroxyphenyl)quinazolin-4-yl)piperidin-4-yl)pentanamide] the value was less than 5.00; for `CCC(C)(O)C(=O)NC1CCN(c2nc(-c3ccccc3O)nc3ccccc23)CC1` (centres unmarked) [Example 242, 2-Hydroxy-N-(1-(2-(2-hydroxyphenyl)quinazolin-4-yl)piperidin-4-yl)-2-methylbutanamide], 5.00 to 5.70; for `CC[C@@H](O)C(=O)NC1CCN(c2nc(-c3ccccc3O)nc3cc(C)ccc23)CC1` [Example 243, (2R)-2-Hydroxy-N-(1-(2-(2-hydroxyphenyl)-7-methylquinazolin-4-yl)piperidin-4-yl)butanamide], less than 5.00.
For `CC[C@H](O)C(=O)NC1CCN(c2nc(-c3ccccc3O)nc3cc(C)ccc23)CC1` [Example 244, (2S)-2-Hydroxy-N-(1-(2-(2-hydroxyphenyl)-7-methylquinazolin-4-yl)piperidin-4-yl)butanamide] the value was less than 5.00.
For `CCCCC(O)C(=O)NC1CCN(c2nc(-c3ccccc3O)nc3cc(C)ccc23)CC1` (centres unmarked) [Example 245, 2-Hydroxy-N-(1-(2-(2-hydroxyphenyl)-7-methylquinazolin-4-yl)piperidin-4-yl)hexanamide], the pIC50 is less than 5.00.
In the case of `Cc1ccc2c(N3CCC(NC(=O)C(C)(O)C(F)(F)F)CC3)nc(-c3ccccc3O)nc2c1` (centres unmarked) [Example 246, 2-(Trifluoromethyl)-2-hydroxy-N-(1-(2-(2-hydroxyphenyl)-7-methylquinazolin-4-yl)piperidin-4-yl)propanamide], the pIC50 is less than 5.00.
For `CCCC(O)C(=O)NC1CCN(c2nc(-c3ccccc3O)nc3cc(C)ccc23)CC1` (centres unmarked) [Example 247, 2-Hydroxy-N-(1-(2-(2-hydroxyphenyl)-7-methylquinazolin-4-yl)piperidin-4-yl)pentanamide] the value was less than 5.00.
For `CCC(C)(O)C(=O)NC1CCN(c2nc(-c3ccccc3O)nc3cc(C)ccc23)CC1` (centres unmarked) [Example 248, 2-Hydroxy-N-(1-(2-(2-hydroxyphenyl)-7-methylquinazolin-4-yl)piperidin-4-yl)-2-methylbutanamide] the value was 5.00 to 5.70; for `Cc1ccc2c(N3CCC(NC(=O)[C@H](O)CC(C)(C)C)CC3)nc(-c3c(O)cccc3F)nc2c1` [Example 249, (2R)—N-(1-(2-(2-Fluoro-6-hydroxyphenyl)-7-methylquinazolin-4-yl)piperidin-4-yl)-2-hydroxy-4,4-dimethylpentanamide], 5.00 to 5.70; for `Cc1ccc2c(N3CCCC(CNC(=O)OCC(C)C)C3)nc(-c3ccccc3O)nc2c1` (centres unmarked) [Example 250, Isobutyl (1-(2-(2-hydroxyphenyl)-7-methylquinazolin-4-yl)piperidin-3-yl)methylcarbamate], more than 5.70.
The value for `CCOC(=O)NCC1CCCN(c2nc(-c3ccccc3O)nc3cc(C)ccc23)C1` (centres unmarked) [Example 251, Ethyl (1-(2-(2-hydroxyphenyl)-7-methylquinazolin-4-yl)piperidin-3-yl)methylcarbamate] was 5.00 to 5.70; that for `Cc1ccc2c(N3CCC[C@@H](CNC(=O)OCC(C)C)C3)nc(-c3ccccc3O)nc2c1` [Example 252, Isobutyl ((S)-1-(2-(2-hydroxyphenyl)-7-methylquinazolin-4-yl)piperidin-3-yl)methylcarbamate] was less than 5.00.
On to `Cc1ccc2c(N3CCC[C@H](CNC(=O)OCC(C)C)C3)nc(-c3ccccc3O)nc2c1` [Example 253, Isobutyl ((R)-1-(2-(2-hydroxyphenyl)-7-methylquinazolin-4-yl)piperidin-3-yl)methylcarbamate], for which the pIC50 is less than 5.00.

As a reminder, the pIC50 is the negative decadic logarithm of the IC50, by convention in mol/L.
